Source: PubChem BioAssay (NCI)
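Assay format: 96-well plates, 48-hour exposure. At the GI50, growth is halved. TGI is the concentration that stops growth completely.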

Columns and labels:
Assay in all cases: DTP human tumour cell line panel, 48 h
[1] = system: HOP-92 NSCLC
[2] = system: NCI-H23 lung
[3] = system: K-562 leukemia
[4] = system: NCI-H460 lung
[5] = system: HCT-116 colon
[6] = system: OVCAR-5 ovarian
[7] = system: KM12 colon
[8] = system: OVCAR-8 ovarian
[9] = system: M14 melanoma
[10] = system: EKVX NSCLC

Compound	GI50 [1]	TGI [1]	GI50 [2]	TGI [2]	GI50 [3]	TGI [3]	GI50 [4]	TGI [4]	GI50 [5]	TGI [5]	GI50 [6]	TGI [6]	GI50 [7]	TGI [7]	GI50 [8]	TGI [8]	GI50 [9]	TGI [9]	TGI [10]	GI50 [10]
NC(=S)N=Nc1c(O)c2ccccc2c2ccccc12	18.4 µM	51.6 µM	2.26 µM	6.1 µM	5.98 µM	28.3 µM	3.23 µM	11.6 µM	4.35 µM	51.5 µM	2.45 µM	6.94 µM	48.2 µM	> 100 µM	4.32 µM	22.7 µM	1.78 µM	3.35 µM		
CCCN(CCC)c1c([N+](=O)[O-])cc(C(=O)N(CCO)CCO)cc1[N+](=O)[O-]				> 100 µM		> 100 µM		> 100 µM		> 100 µM		> 100 µM		> 100 µM		> 100 µM		> 100 µM	> 100 µM	
Cn1c(=O)c2[nH]cnc2n(CC(N)=O)c1=O		> 100 µM		> 100 µM		> 100 µM		> 100 µM		> 100 µM				> 100 µM		> 100 µM		> 100 µM	> 100 µM	
COc1ccc(C2C=C(c3ccc(Cl)cc3)N=C3SC=C(C)N32)c(Br)c1 (stereo not drawn)	3.45 µM	22 µM	4.43 µM	28.4 µM	4.02 µM	> 100 µM	2.24 µM	5.87 µM	2.58 µM	11 µM	3.12 µM	11.2 µM	2.26 µM	5.77 µM	3.32 µM	50.7 µM	3.99 µM	15.7 µM		
O=C(Nc1ccccc1O)c1ccc(NS(=O)(=O)c2cccc3cccnc23)cc1	0.691 µM	3.22 µM	2.02 µM	13.7 µM	0.971 µM	> 25 µM	1.05 µM	7.28 µM	0.752 µM	3.1 µM	0.744 µM	> 12.7 µM	2.73 µM	7.29 µM	0.665 µM	7.25 µM	1.18 µM	5.61 µM		
N#Cc1ccc2cc3c(cc2c1)OCO3		> 100 µM		> 100 µM		> 100 µM		> 100 µM		> 100 µM		> 100 µM		> 100 µM				> 100 µM		
CC1=C(C)C2(O)C(=C(C)C1=O)/C(=C(/O)c1ccccc1)c1nc3ccccc3n12 (stereo not drawn)	16.1 µM	41.7 µM	15 µM	29.9 µM	24.5 µM	52 µM	18.5 µM	50.8 µM	29.4 µM	72 µM			17.6 µM	37.6 µM	18 µM	41 µM	23.5 µM	52.7 µM	60.4 µM	24.5 µM
CC(=O)N(O)Cc1ccccc1		> 100 µM		> 100 µM		> 100 µM		> 100 µM		> 100 µM		> 100 µM		> 100 µM		> 100 µM		> 100 µM		
CC12CCC3c4cc(Br)c(O)c(Br)c4CCC3C1CCC2O (stereo not drawn)						64.6 µM				> 100 µM		> 100 µM		26.6 µM		42.1 µM		> 100 µM	45.4 µM	
S=C=NCCc1ccccc1				1.31 µM		> 64.1 µM		0.765 µM		1.74 µM		2.96 µM		1.48 µM		5.57 µM		1.94 µM	30.4 µM	
COc1cc(NCCN=C(N)NC(N)=NC(C)C)c2ncccc2c1	3.59 µM	31.6 µM	3.25 µM	15.7 µM	10.7 µM	> 100 µM	5.67 µM	> 57.6 µM	3.63 µM	> 100 µM	11.2 µM	39.3 µM	3.53 µM	> 41.2 µM	22.6 µM	> 100 µM	22.6 µM	> 100 µM		
Cc1ccc(C)c(NC(=O)CC2SC(=Nc3ccccc3Cl)NC2=O)c1 (stereo not drawn)		> 100 µM		> 100 µM				> 100 µM		> 100 µM		> 100 µM		> 100 µM		> 100 µM		> 100 µM	> 100 µM	
C=C(C)C(=O)O[C@@H]1C/C(C)=C\[C@H](OC(C)=O)C[C@](C)(O)/C=C2/OC(=O)C(COC(C)=O)=C21		37.5 µM		5.21 µM		0.879 µM		2.35 µM		1.7 µM		4.55 µM		23.5 µM		2.75 µM			2.07 µM	
COc1ccc(N(/C=C/C(=O)C(F)(F)F)CC(=O)c2ccc(Cl)cc2)cc1	15.9 µM	41.4 µM	15.3 µM	35 µM	13.6 µM	43.1 µM	13.4 µM	32.8 µM	7.62 µM	26.6 µM	18.5 µM	38.5 µM	11.7 µM	32.8 µM	13.5 µM	40 µM			63.3 µM	25.3 µM
O=c1[nH]c(=O)n(C2CC(O)C(CO)O2)cc1C#Cc1ccc(F)cc1 (stereo not drawn)				> 100 µM		> 100 µM		> 100 µM				> 100 µM		> 100 µM		> 100 µM		> 100 µM	> 100 µM	
c1ccc([As]=[As]c2ccccc2)cc1 (stereo not drawn)	1.22 µM	3.08 µM			0.311 µM	2.1 µM	2.01 µM	4.15 µM	1.14 µM	3.7 µM	1.5 µM	3.07 µM	1.87 µM	3.69 µM	1.44 µM	3.69 µM	1.55 µM	4.17 µM		
Cc1ccc(NC(=O)/C(=N/N(C)C)C(C2OC(=O)c3ccccc32)[N+](=O)[O-])cc1 (stereo not drawn)		> 100 µM		> 100 µM		> 100 µM		> 100 µM		> 100 µM		> 100 µM		> 100 µM		> 100 µM		> 100 µM		
COc1ccc(Cn2cc3c(c2-c2ccccc2)CCc2cnoc2-3)cc1N			0.441 µM	> 100 µM	0.0452 µM	> 100 µM	0.115 µM	1.66 µM	0.0996 µM	> 33.9 µM	0.629 µM	> 100 µM	0.0788 µM	2.58 µM	0.468 µM	> 100 µM	0.227 µM	> 100 µM	> 100 µM	0.359 µM
